According to patent US9289443B2, “Pharmaceutical composition and method for preventing or treating hepatitis C” (INDUSTRIAL TECHNOLOGY RESEARCH INSTITUTE, priority 2010, dated 2016):
Like-named read-outs stand apart in the source and are kept apart here.

Tests used:
Huh-luc/neo-ET cells = test: Cell cytotoxic test (MTT) on Huh-luc/neo-ET cells; type: cell-based; conditions: two-day culture; for CC15: concentration for 15% cell kill; for CC50: concentration for 50% cell kill
Description: (§1) Cell Cytotoxic Test on Huh-luc/noe-ET Cells
(§2) Huh-luc/neo-ET cells with a concentration of 2.5×10^4 cells/100 μl/well were seeded into a 96 well culture plate (Corning Incorporation COSTAR, 3599) and placed into a cell incubator for culturing.
(§3) The next day, the oleanolic acid derivatives as listed in the following Tables 1 and 2 were diluted with a DMEM culture medium to the concentrations of 28.73 μg/ml, 9.57 μg/ml, 3.19 μg/ml, 1.06 μg/ml, 0.35 μg/ml, 0.11 μg/ml, 0.039 μg/ml and 0.013 μg/ml, respectively, or diluted to the concentrations of 114.92 μg/ml, 38.33 μg/ml, 12.77 μg/ml, 4.25 μg/ml, 1.42 μg/ml, 0.46 μg/ml, 0.16 μg/ml and 0.057 μg/ml, respectively. The initial medium in the 96 well culture plate was sucked out by a vacuum pump (DOAT-704AA) without removing the cells. Then, the culture medium containing the oleanolic acid derivatives were added into the 96 well culture plate containing 100 μl/well of the cells as the experiment groups, while the untreated culture mediums were added to the cells as a control.
(§4) After a two-day culture, the medium was removed and each well containing cells was washed by 100 μl of 1×PBS (1 mM KH2PO4, 10 mM Na2HPO4, 137 mM NaCl, 2.7 mM KCl) twice. Precipitates were recorded and PBS was removed. 50 μl of the medium containing 0.5 mg/ml of MTT (Sigma, M2128) was added into each well of the 96 well culture plate. The 96 well culture plate was placed in a CO2 culture incubator for 1 hour. Subsequently, 150 μl of DMSO (Riedel-de Haül, 60153) was added to each well of the 96 well culture plate and vortexed (KS shaker Type 670) to thoroughly mix the resulting purple precipitates. The 96 well culture plate was then placed in a continuous wave length microwell plate analysis system (Molecular Devices, SPECTRAMAX 190) to measure the absorbance of cells at a wavelength of 560 nm.
(§5) The average absorbance of the control was set as 100% of the cell survival rates (%) to calculate the cell survival rates (%) of the experiment groups with different concentrations of the oleanolic acid derivatives.
(§6) The cell survival rate was calculated by the following formula: Absorbance of the experiment group/Absorbance of the control×100%
(§7) The data of the cell survival rates for all experiment groups were plotted on an x-y graph to see the distribution. A trend line was obtained. […]

[1] = Cell cytotoxic test (MTT) on Huh-luc/neo-ET cells; type: cell-based; conditions: human, concentration for 50% cell kill, two-day culture
Description: as §1, §2, §3, §4, §5, §6, §7

[2] = tested on: HCV replicon system (Huh-luc/neo-ET cell carrying I389luc-ubi-NS3-3'/ET); test: Inhibition of the HCV replication by determining the firefly luciferase activity (HCV replicon system); type: cell-based, Hepatitis C virus; conditions: for EW (CC50/IC50): ratio of CC50/IC50
Description: HCV replicon system was used to test the effects of compounds on the treatment and prevention of hepatitis C. The HCV replicon system has been acknowledged as a screening tool for new drugs (Lohmann, V. et al., 1999, Replication of subgenomic hepatitis C virus RNAs in hepatoma cell line, Science. Vol. 285, 110-113; Bartenschlager, R. 2002, Hepatitis C virus replicons: potential role for drug development, Nature Reviews/Drug Discovery. Vol. 1, 911-916; Vorlijk, J. M. et al., 2003, A replicon-based bioassay for the measurement of interferons in patients with chronic hepatitis C, Journal of Virological Methods. 110:201-209). The HCV replicon system includes a Huh-luc/neo-ET cell carrying I389luc-ubi-NS3-3′/ET gene construct which monitors the replicative capability of the HCV. In the HCV replicon system, a firefly luciferase-ubiquitin-neomycin fusion protein is expressed by the translation of the internal ribosomal entry site (IRES) of the HCV, and the hepatitis C viral nonstructural proteins (NS3-5B), which includes protease, helicase and polymerase, are expressed by the translation of the IRES of the encephalomyocarditis virus (EMCV).
The IRES of the hepatitis C virus or the hepatitis C viral nonstructural proteins consist of a replication complex. When the replication complex is affected by the candidate compound, the activity of the HCV replicon system is inhibited and the activity of the luciferase is reduced. Accordingly, the inhibition of the HCV can be estimated by determining the activity of the intensity of the luciferase expressed by the Huh-luc/noe-ET cell.
Inhibition of the HCV Replication by Determining the Firefly Luciferase Activity
as §2
The oleanolic acid derivatives as listed in Table 2 were co-cultured with Huh-luc/neo-ET cells for 2 days. The mediums were washed twice by 100 μl of 1×PBS (1 mM KH2PO4, 10 mM Na2HPO4, 137 mM NaCl, 2.7 mM KCl) and PBS was removed. 35 μl of 1× passive lysis buffer (Promega, E1941) was added to the cells and vortexed for 10 minutes to thoroughly lysis the cells.
30 μl/well of the cell suspension was then added to a 96 well white plate (NUNC, 236108) for the measurement of the luciferase activity. Subsequently, 40 μl/well of luminescence analysis buffer and 20 μl/well of luminescence substrate (1 mM D-Luciferin) were added into the 96 well white plates. The luciferase activity (Rlu/s) was measured by a microplate luminescence meter (Berthold, MPL4) immediately.
The luciferase activity of the control was set as a standard to calculate the inhibition rates (%) of HCV of the experiment groups. The inhibition rates was calculated by the following formula: […]
After the test compounds were serial diluted and the inhibition rates of the HCV replication were determined at different concentrations, the concentration at 50% inhibition of the HCV replication (IC50) was calculated by grafit5 software (Erithacus Software).
For each experiment, 0.5 ng/ml and 0.1 ng/ml of the PEG IFN alpha-2a were used as positive controls for the IC50 test. Meanwhile, 1 μg/ml of cyclosporine A (CsA) was also used as a positive control for the IC50 test.

[3] = Hepatitis C virus, Huh-luc/neo-ET, 48 h, compound concentration 10 μM, 2 days co-culture, luciferase activity, read-out: Inhibition rate (%)
[4] = Hepatitis C virus, concentration for 50% inhibition of the HCV replication, Huh-luc/neo-ET replicon cells, read-out: IC50
[5] = compound concentration 10 μM, 2 days co-culture, luciferase activity
[6] = Hepatitis C virus, Huh-luc/neo-ET
[7] = Hepatitis C virus, Huh-luc/neo-ET, 48 h, read-out: Inhibition rate (%)

SMILES | CC15 (Huh-luc/neo-ET cells) | CC50 at 2 days [1] | inhibition at 10 µM [2, 3] | EW (CC50/IC50) [2] | also measured
CC1(C)CC[C@]2(C(=O)O)CCC3=C([C@@H](CCl)C[C@@H]4[C@@]5(C)C[C@H](O)[C@H](O)[C@@](C)(C(=O)O)[C@@H]5CC[C@@]34C)[C@@H]2C1 [A01] | >100 µM | > 100 µM | 41.5 ± 26.7% | – | –
C[C@@H]1OC(O[C@H]2C(OC(=O)[C@]34CCC(C)(C)C[C@H]3C3=CC[C@@H]5[C@@]6(C)C[C@H](O)[C@@H]7OC8O[C@H](CO)[C@@H](O)[C@H](O)[C@H]8OC8OC[C@H](O)[C@H](O)[C@H]8OC(=O)CC(C)(O)CC(=O)OC[C@H]7[C@@H]6CC[C@@]5(C)[C@]3(C)CC4)OC[C@H](O)[C@@H]2O)[C@H](O)[C@H](OC2OC[C@@H](O)[C@H](O)[C@H]2O)[C@H]1O (stereo partly drawn) [A02] | 2.9 µM | 15.2 µM | 96.7 ± 0.6% | 44.71 | IC50 [2, 4]: 0.34 ± 0.06 µM
C[C@H]1O[C@@H](O[C@H]2CC[C@@]3(C)[C@@H](CC[C@]4(C)[C@@H]3C=C[C@]35OC[C@@]6(CCC(C)(C)C[C@H]63)[C@@H](O)C[C@]54C)[C@]2(C)CO)[C@H](O)[C@@H](O[C@@H]2O[C@H](CO)[C@@H](O)[C@H](O)[C@H]2O)[C@H]1O [A03, Saikosaponin A] | 12.7 µM | – | – | – | CC50 (Huh-luc/neo-ET cells): 23.1 µM; Inhibition rate (%) [2, 5]: 13.3 ± 8%
C[C@@H]1O[C@@H](O[C@@H]2[C@H](O)[C@@H](O)[C@H](O[C@H]3CC[C@@]4(C)C(CC[C@]5(C)C4C=C[C@]46OC[C@@]7(CCC(C)(C)CC74)[C@@H](O)C[C@]65C)C3(C)C)O[C@@H]2CO[C@@H]2O[C@H](CO)[C@@H](O)[C@H](O)[C@H]2O)[C@H](O)[C@H](O)[C@H]1O (stereo partly drawn) [A04, Saikosaponin C] | >100 µM | – | – | – | CC50 (Huh-luc/neo-ET cells): > 100 µM; Inhibition rate (%) [2, 5]: 3.1 ± 12.9%
C[C@H]1O[C@@H](O[C@H]2CC[C@@]3(C)[C@@H](CC[C@]4(C)[C@@H]3C=C[C@]35OC[C@@]6(CCC(C)(C)C[C@H]63)[C@H](O)C[C@]54C)[C@]2(C)CO)[C@H](O)[C@@H](O[C@@H]2O[C@H](CO)[C@@H](O)[C@H](O)[C@H]2O)[C@H]1O [A05, Saikosaponin D] | 16.1 µM | – | – | – | CC50 (Huh-luc/neo-ET cells): 23.2 µM; Inhibition rate (%) [2, 5]: 50 ± 11.6%
CC(=O)OCC1OC(OC2COC(OC3COC(OC4C(OC5C(CO)OC(OC6CCC7(C)C(CCC8(C)C7CC=C7C9CC(C)(C)CCC9(C(=O)OC9OC(CO)C(O)C(O)C9OC9OCC(O)C(OC%10OCC(O)(CO)C%10O)C9O)C(O)CC78C)C6(C)C)C(O)C5O)OCC(O)C4O)C(O)C3O)C(O)C2O)C(OC(=O)/C=C/c2ccccc2)C(O)C1OC(C)=O (stereo not drawn) [A06] | 8.9 µM | 25.2 µM | – | 2520 | inhibition at 8 µM ([2]; Hepatitis C virus, Huh-luc/neo-ET, 48 h, compound concentration 8 μM, 2 days co-culture, luciferase activity, read-out: Inhibition rate (%)): 94.7 ± 1.1%; IC50 [2, 4]: 0.01 ± 0.004 µM
CC(=O)OC1C(OC(C)=O)[C@]2(CO)C(OC(C)=O)C[C@]3(C)C(=CCC4[C@@]5(C)CC[C@H](OC6OC(C(C)=O)C(O)C(OC7OC(CO)C(O)C(O)C7O)C6O)C(C)(C)C5CC[C@]43C)C2CC1(C)C (stereo partly drawn) [A07] | >100 µM | > 100 µM | 10.3 ± 11.7% | – | –
CC1(C)CC[C@]2(C(=O)O)CC[C@]3(C)C(=CCC4[C@@]5(C)C[C@@H](O)[C@H](O)[C@@](C)(COC(=O)/C=C/c6ccc(O)cc6)C5CC[C@]43C)C2C1 (stereo partly drawn) [A08] | 9.6 µM | 72 µM | 0.4 ± 22% | – | –
CC1(C)CC[C@]2(C(=O)O)CC[C@]3(C)C(=CCC4[C@@]5(C)C[C@@H](O)[C@H](OC(=O)/C=C/c6ccc(O)cc6)C(C)(C)C5CC[C@]43C)C2C1 (stereo partly drawn) [A09] | 3.1 µM | 26.1 µM | 13.6 ± 0.5% | – | –
C=CC(C)(O)CCCC(C)C(=O)OC1C(OC2OCC(OC3OC(CO)C(O)C(O)C3O)C(OC3OCC(O)C(OC4OC(CO)C(O)C(O)C4O)C3O)C2O)COC(OC(=O)C23CCC(C)(C)CC2C2=CCC4C5(C)CCC(OC6OC(CO)C(OC7OC(CO)C(O)C(OC8OCC(O)C(O)C8O)C7O)C(O)C6O)C(C)(C)C5CCC4(C)C2(C)CC3O)C1O (stereo not drawn) [A10] | 2.2 µM | 39.1 µM | – | 126.13 | inhibition at 2 µM ([2]; Hepatitis C virus, Huh-luc/neo-ET, 48 h, compound concentration 2 μM, 2 days co-culture, luciferase activity, read-out: Inhibition rate (%)): 95.7 ± 0.6%; IC50 [2, 4]: 0.31 ± 0.04 µM
C/C=C(/C)C(=O)OC1C(O)C(C)(C)CC2C3=CCC4C5(C)CCC(OC6OC(C(=O)O)C(O)C(OC7OCC(O)C(O)C7O)C6OC6OC(CO)C(O)C(O)C6O)C(C)(C)C5CCC4(C)C3(C)C(OC(C)=O)C(O)C21CO (stereo not drawn) [A11] | 6.1 µM | 29.8 µM | – | – | inhibition at 5 µM ([2]; Hepatitis C virus, Huh-luc/neo-ET, 48 h, compound concentration 5 μM, 2 days co-culture, luciferase activity, read-out: Inhibition rate (%)): 28.3 ± 9.1%
COc1ccc(/C=C/C(=O)OC2C(C)OC(OC(=O)C34CCC(C)(C)CC3C3=CCC5[C@@]6(C)CC[C@H](OC7OC(C(=O)O)C(O)C(O)C7OC7OC(CO)C(O)C(O)C7O)[C@@](C)(C=O)C6CC[C@@]5(C)[C@]3(C)C[C@H]4O)C(OC3OC(C)C(O)C(O)C3OC3OCC(O)C(O)C3O)C2O)cc1 (stereo partly drawn) [A12] | >100 µM | > 100 µM | – | 1250 | IC50 [2, 6]: 0.08 ± 0.003 µM; inhibition at 10 µM [2, 7]: 95.8 ± 1%
CC(=O)OC1C(OC(=O)C(C)C)C2(CO)C(CC1(C)C)C1=CCC3C4(C)CCC(OC5OC(C)C(OC6OC(C(=O)O)C(O)C(OC7OC(CO)C(O)C(O)C7OC7OC(CO)C(O)C(O)C7O)C6O)C(O)C5O)C(C)(C)C4CCC3(C)C1(C)C(O)C2O (stereo not drawn) [A13] | 16.1 µM | 100 µM | – | 30.21 | inhibition at 15 µM ([2]; Hepatitis C virus, Huh-luc/neo-ET, 48 h, compound concentration 15 μM, 2 days co-culture, luciferase activity, read-out: Inhibition rate (%)): 93 ± 0.4%; IC50 [2, 4]: 3.31 ± 0.29 µM
C/C=C(/C)C(=O)OC1CC(C)(C)CC2C3=CCC4C5(C)CCC(OC6OC(C)C(OC7OC(C(=O)O)C(O)C(OC8OC(CO)C(O)C(O)C8OC8OC(CO)C(O)C(O)C8O)C7O)C(O)C6O)C(C)(C)C5CCC4(C)C3(C)C(OC(=O)/C=C/C=C/C=C/CCC)C(O)C12CO (stereo not drawn) [A14] | 5.9 µM | > 100 µM | – | 51.28 | IC50 [2, 6]: 1.95 ± 0.12 µM; inhibition at 5 µM [2, 7]: 89.3 ± 0.8%
